Laboratory results: patent US9820943B2, “Micronized amoxicillin” (DSM SINOCHEM PHARMACEUTICALS NETHERLANDS B.V., priority 2013, dated 2017)
Blank lines part the entries; values can stand above or below the molecule they belong to.

Experiments:
Format in all cases: physicochemical
[1] = Particle size distribution by laser diffraction (Malvern); details: trihydrate
Protocol: Particle size distribution values D10, D50, D90 and D100 were determined using laser diffraction applying Malvern equipment. A suitable apparatus for determining D10, D50, D90 and D100 is a Malvern particle sizer 2600 C or a Malvern Zeta Sizer.
(§1) Parameters operated were: • Augar Speed: 5-90 rpm • Primary Air Pressure: 2-8 kg·cm^−2 • Secondary Air Pressure: 4-10 kg·cm^−2 The surface area (in triplicate), average particle size and contact angle (in quadruplicate) were determined as outlined in the General section. The purity of the amoxicillin trihydrate samples was 99.4±0.3% and were void of dichloromethane, isopropanol, pivalic acid and triethyl amine.

[2] = Powder dissolution, USP/NF paddle method with HPLC analysis; details: 500 mg in 900 mL water, 37 °C, 75 rpm; for Amoxicillin released in solution Mean: mean of 3; for Amoxicillin released in solution #1: replicate #1; for Amoxicillin released in solution #2: replicate #2; for Amoxicillin released in solution #3: replicate #3
Protocol: Dissolution analysis of amoxicillin trihydrate powder samples was carried out using the USP/NF paddle method at a rotational speed of 75 rpm. Ultrapure ELGA laboratory water (900 mL) was used as dissolution medium. Media were equilibrated to 37.0±0.5° C. prior to dissolution. Amoxicillin trihydrate sample powder (500 mg) was directly added to the dissolution apparatus (Electrolab USP-24, India). Samples were collected at 0, 1, 3, 5, 10, 15, 30, 60 and 90 min, filtered through 0.2 μm filters and analyzed by HPLC. Dissolution profiles were constructed by plotting the percentage amoxicillin released against time.
The HPLC system (Shimadzu Corporation, Kyoto, Japan) comprised of an SCL-10A VP system controller, LC-10AT VP liquid chromatograph, FCV-10AL VP flow control valve, DGU-14A degasser, SIL-10AD VP auto-injector, CTO-10AS VP column oven, SPD-M20A prominence diode array (PDA) detector and data acquisition Class-VP 6.10 software. The HPLC method was adopted from the United States Pharmacopoeia (USP). The method was validated for linearity, precision, accuracy and intra- and inter-day variability. The mobile phase was 50 mM monobasic potassium phosphate:methanol (96:4, v/v, pH 5.0). All analyses were carried out using Lichrospher® 100 RP-18e analytical column (5 μm, Merck KGaA, Darmstadt, Germany) under isocratic conditions at a flow rate of 1.0 mL·min^−1 at 25° C. with 20 μL injection volume. Effluent was monitored at a wavelength of 230 nm. Samples for calibration curve generation were prepared in 50 mM monobasic potassium phosphate:methanol 1:1 (v/v) proportion at a concentration range of 1 to 600 μg·mL^−1.
The three non-micronized (i.e. entries 1-3 of Table 1) and micronized (i.e. entries 4-6 of Table 1) amoxicillin trihydrate samples of Example 1 were subjected to a powder dissolution test (in triplicate) as outlined in the General section.

[3] = Specific powder surface area by nitrogen gas sorption (BET); details: triplicate, trihydrate
Protocol: Specific powder surface area was determined using nitrogen gas sorption (Smartsorb, Smart Instruments, Mumbai, India). Prior to measurements, samples were regenerated by degassing to remove moisture and contamination. The regenerated sample was dipped in liquid nitrogen and the quantity of the adsorbed gas was measured using a thermal conductivity detector and subsequently integrated using an electronic circuit in terms of counts. The instrument was calibrated by injecting a known quantity of nitrogen. The measured parameters were subsequently used to calculate the surface area of the sample by employing the adsorption theories of Brunauer, Emmett and Teller (BET).
as §1

[4] = Contact angle by sessile drop method (water); details: ambient conditions, trihydrate
Protocol: Contact angles of amoxicillin trihydrate powder samples were measured by the sessile drop method using an Drop Shape Analyzer instrument (FTA 1000, First Ten Angstrom, Virginia, USA). Powder samples were mounted on double sided adhesive tape adhered to a glass slide and excess powder was removed by tapping the slide. A drop of probe liquid (water) was dispersed onto the sample surface and video images were captured by the FTA image analyzer. The contact angle was calculated by the instrument by fitting a mathematical expression to the shape of the drop followed by calculating the slope of the tangent to the drop at the liquid-solid-vapor interface line. The surface tension of ultrapure ELGA laboratory water was measured to be 73±0.5 mN·m^−1 at 25° C. All measurements were performed in air under ambient conditions and an average of four measurements was reported in the below Examples.
as §1

Average Particle Size D10 [1]: 1.9 μm
Average Particle Size D50 [1]: 10.0 μm
Average Particle Size D90 [1]: 22.5 μm
Average Particle Size D100 [1]: 44.3 μm
Amoxicillin released in solution Mean ([2]; 0 min): 0%
Amoxicillin released in solution #1 ([2]; 0 min): 0%
Amoxicillin released in solution #2 ([2]; 0 min): 0%
Amoxicillin released in solution #3 ([2]; 0 min): 0%
Amoxicillin released in solution Mean ([2]; 1 min, trihydrate): 59.93%
Amoxicillin released in solution #1 ([2]; 1 min, trihydrate): 58.56%
Amoxicillin released in solution #2 ([2]; 1 min, trihydrate): 62.91%
Amoxicillin released in solution #3 ([2]; 1 min, trihydrate): 58.32%
Amoxicillin released in solution Mean ([2]; 3 min, trihydrate): 77.98%
Amoxicillin released in solution #1 ([2]; 3 min, trihydrate): 78.61%
Amoxicillin released in solution #2 ([2]; 3 min, trihydrate): 80.12%
Amoxicillin released in solution #3 ([2]; 3 min, trihydrate): 75.20%
Amoxicillin released in solution Mean ([2]; 5 min, trihydrate): 82.14%
Amoxicillin released in solution #1 ([2]; 5 min, trihydrate): 83.91%
Amoxicillin released in solution #2 ([2]; 5 min, trihydrate): 82.77%
Amoxicillin released in solution #3 ([2]; 5 min, trihydrate): 79.73%
Amoxicillin released in solution Mean ([2]; 10 min, trihydrate): 86.84%
Amoxicillin released in solution #1 ([2]; 10 min, trihydrate): 89.18%
Amoxicillin released in solution #2 ([2]; 10 min, trihydrate): 88.59%
Amoxicillin released in solution #3 ([2]; 10 min, trihydrate): 82.76%
Amoxicillin released in solution Mean ([2]; 15 min, trihydrate): 89.32%
Amoxicillin released in solution #1 ([2]; 15 min, trihydrate): 90.98%
Amoxicillin released in solution #2 ([2]; 15 min, trihydrate): 92.05%
Amoxicillin released in solution #3 ([2]; 15 min, trihydrate): 84.94%
Amoxicillin released in solution Mean ([2]; 30 min, trihydrate): 96.72%
Amoxicillin released in solution #1 ([2]; 30 min, trihydrate): 94.78%
Amoxicillin released in solution #2 ([2]; 30 min, trihydrate): 99.20%
Amoxicillin released in solution #3 ([2]; 30 min, trihydrate): 96.17%
Amoxicillin released in solution Mean ([2]; 60 min, trihydrate): 97.60%
Amoxicillin released in solution #1 ([2]; 60 min, trihydrate): 97.29%
Amoxicillin released in solution #2 ([2]; 60 min, trihydrate): 99.86%
Amoxicillin released in solution #3 ([2]; 60 min, trihydrate): 95.65%
Amoxicillin released in solution Mean ([2]; 90 min, trihydrate): 99.15%
Amoxicillin released in solution #1 ([2]; 90 min, trihydrate): 99.33%
Amoxicillin released in solution #2 ([2]; 90 min, trihydrate): 99.64%
Amoxicillin released in solution #3 ([2]; 90 min, trihydrate): 98.47%
Surface Area Mean ± SD (n = 3) [3]: 2.03 ± 0.15 m^2 · g^−1
Contact Angle Mean ± SD (n = 4) [4]: 97.89 ± 1.22
SMILES: CC1(C)S[C@@H]2[C@H](NC(=O)[C@H](N)c3ccc(O)cc3)C(=O)N2[C@H]1C(=O)O.O.O.O [entry 5, amoxicillin trihydrate]

Average Particle Size D10 [1]: 13.5 μm
Average Particle Size D50 [1]: 40.6 μm
Average Particle Size D90 [1]: 94.3 μm
Average Particle Size D100 [1]: 237.5 μm
Amoxicillin released in solution Mean ([2]; 0 min): 0%
Amoxicillin released in solution #1 ([2]; 0 min): 0%
Amoxicillin released in solution #2 ([2]; 0 min): 0%
Amoxicillin released in solution #3 ([2]; 0 min): 0%
Amoxicillin released in solution Mean ([2]; 1 min, trihydrate): 61.71%
Amoxicillin released in solution #1 ([2]; 1 min, trihydrate): 61.68%
Amoxicillin released in solution #2 ([2]; 1 min, trihydrate): 61.21%
Amoxicillin released in solution #3 ([2]; 1 min, trihydrate): 62.23%
Amoxicillin released in solution Mean ([2]; 3 min, trihydrate): 99.69%
Amoxicillin released in solution #1 ([2]; 3 min, trihydrate): 99.58%
Amoxicillin released in solution #2 ([2]; 3 min, trihydrate): 99.88%
Amoxicillin released in solution #3 ([2]; 3 min, trihydrate): 99.60%
Amoxicillin released in solution Mean ([2]; 5 min, trihydrate): 98.99%
Amoxicillin released in solution #1 ([2]; 5 min, trihydrate): 99.89%
Amoxicillin released in solution #2 ([2]; 5 min, trihydrate): 99.79%
Amoxicillin released in solution #3 ([2]; 5 min, trihydrate): 97.29%
Amoxicillin released in solution Mean ([2]; 10 min, trihydrate): 99.66%
Amoxicillin released in solution #1 ([2]; 10 min, trihydrate): 99.66%
Amoxicillin released in solution #2 ([2]; 10 min, trihydrate): 98.95%
Amoxicillin released in solution #3 ([2]; 10 min, trihydrate): 100.36%
Amoxicillin released in solution Mean ([2]; 15 min, trihydrate): 99.43%
Amoxicillin released in solution #1 ([2]; 15 min, trihydrate): 99.51%
Amoxicillin released in solution #2 ([2]; 15 min, trihydrate): 98.98%
Amoxicillin released in solution #3 ([2]; 15 min, trihydrate): 99.80%
Amoxicillin released in solution Mean ([2]; 30 min, trihydrate): 99.33%
Amoxicillin released in solution #1 ([2]; 30 min, trihydrate): 99.65%
Amoxicillin released in solution #2 ([2]; 30 min, trihydrate): 99.00%
Amoxicillin released in solution #3 ([2]; 30 min, trihydrate): 99.34%
Amoxicillin released in solution Mean ([2]; 60 min, trihydrate): 99.45%
Amoxicillin released in solution #1 ([2]; 60 min, trihydrate): 99.56%
Amoxicillin released in solution #2 ([2]; 60 min, trihydrate): 99.17%
Amoxicillin released in solution #3 ([2]; 60 min, trihydrate): 99.60%
Amoxicillin released in solution Mean ([2]; 90 min, trihydrate): 99.15%
Amoxicillin released in solution #1 ([2]; 90 min, trihydrate): 99.24%
Amoxicillin released in solution #2 ([2]; 90 min, trihydrate): 99.24%
Amoxicillin released in solution #3 ([2]; 90 min, trihydrate): 98.96%
Surface Area Mean ± SD (n = 3) [3]: 0.69 ± 0.03 m^2 · g^−1
Contact Angle Mean ± SD (n = 4) [4]: 67.70 ± 1.39
SMILES: CC1(C)S[C@@H]2[C@H](NC(=O)[C@H](N)c3ccc(O)cc3)C(=O)N2[C@H]1C(=O)O.O.O.O [entry 2, amoxicillin trihydrate]
